Key:
[1] = biological target: T1, muscarinic M1 receptor (Homo sapiens, UniProt P11229); assay: Allosteric potency EC50 for muscarinic M1 receptor (CHO pCRE-Luc reporter assay); type: cell-based; conditions: in presence of EC20 of acetylcholine; CHO cells, luciferase reporter, 4 hours
T1 sequence (P11229 1-460): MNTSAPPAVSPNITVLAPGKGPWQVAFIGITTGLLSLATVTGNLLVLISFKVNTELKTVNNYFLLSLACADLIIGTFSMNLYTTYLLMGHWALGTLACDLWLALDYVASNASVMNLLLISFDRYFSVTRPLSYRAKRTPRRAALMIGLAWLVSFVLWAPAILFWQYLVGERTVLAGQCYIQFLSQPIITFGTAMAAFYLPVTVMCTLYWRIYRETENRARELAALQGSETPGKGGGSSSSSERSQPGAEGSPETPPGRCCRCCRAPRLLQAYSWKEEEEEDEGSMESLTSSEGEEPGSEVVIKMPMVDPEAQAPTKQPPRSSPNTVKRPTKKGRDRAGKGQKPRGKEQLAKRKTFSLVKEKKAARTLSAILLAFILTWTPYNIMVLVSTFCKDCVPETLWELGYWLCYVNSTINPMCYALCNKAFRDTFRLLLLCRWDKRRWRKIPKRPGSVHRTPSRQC
Method: Determination of Allosteric Potency EC50 Values for Muscarinic M1 Receptor:
A stable CHO cell line expressing recombinant human Muscarinic M1 receptor and pCRE-Luc reporter system was used for cell-based assay. The assay offers a non-radioactive based approach to determine binding of a compound to GPCRs. In this specific assay, the level of intracellular cyclic AMP which is modulated by activation or inhibition of the receptor is measured. The recombinant cells harbor luciferase reporter gene under the control of cyclic AMP response element.
The above cells were grown in 96 well clear bottom white plates in Hams F12 medium containing 10% fetal bovine serum (FBS). Prior to the addition of compounds or standard agonist, cells were serum starved overnight. Increasing concentrations of test compounds were added along with EC20 of acetylcholine in OptiMEM medium to the cells. The incubation was continued at 37° C. in CO2 incubator for 4 hours. Medium was removed and cells were washed with phosphate buffered saline. The cells were lysed and luciferase activity was measured in a Luminometer. Luminescence units were plotted against the compound concentrations using Graphpad software. EC50 values of the compounds were defined as the concentration required in stimulating the luciferase activity by 50% in presence of EC20 of acetylcholine and the results are provided in table 1.

[2] = Rodent pharmacokinetic study; type: in vivo, Male Wistar rats; conditions: rat; for AUC(0-t) / clearance / half-life / Cmax: male, Wistar, plasma; for F: oral (gavage) 3 mg/kg vs intravenous 1 mg/kg
Method: Rodent Pharmacokinetic Study
Male Wistar rats (260±50 grams) were used as experimental animals. Animals were housed individually in polypropylene cage. Two days prior to study, male Wistar rats were anesthetized with isoflurane for surgical placement of jugular vein catheter. Rats were randomly divided for oral (3 mg/kg) and intravenous (1 mg/kg) dosing (n=3/group) and fasted overnight before oral dosing (p.o.). However, rats allocated to intravenous dosing food and water was provided ad libitum.
At pre-determined point, blood was collected through jugular vein and replenished with an equivalent volume of normal saline. Collected blood was transferred into a labeled eppendorf tube containing 10 μL of heparin as an anticoagulant. Typically blood samples were collected at following time points: 0.08, 0.25, 0.5, 1, 2, 4, 6, 8, and 24 hours post dose. Blood was centrifuged at 4000 rpm for 10 minutes. Plasma was separated and stored frozen at −80° C. until analysis. The concentrations of the test compounds were quantified in plasma by qualified LC-MS/MS method using suitable extraction technique. The test compounds were quantified in the calibration range around 1-1000 ng/mL in plasma. Study samples were analyzed using calibration samples in the batch and quality control samples spread across the batch.
Pharmacokinetic parameters Cmax, AUCt, T1/2, Clearance and Bioavailability (F) were calculated by non-compartmental model using standard non-compartmental model by using Phoenix WinNonlin 6.0.4 version Software package.

[3] = test system: Male Wistar rats; assay: Object recognition task model; type: in vivo; conditions: rat, p.o.; for Exploration time mean ± S.E.M, Familiar object / Exploration time mean ± S.E.M, Novel object: choice trial 24 hours after T1
Method: Object Recognition Task Model
Male Wistar rats (8-10 weeks old) were used as experimental animals. Four animals were housed in each cage. Animals were kept on 20% food deprivation from a day prior to experimentation. Water was provided ad libitum throughout the experiment. Animals were maintained on a 12 hours light/dark cycle in temperature and humidity controlled room. The experiment was carried out in an circular or square arena made up of acrylic. Rats were habituated to individual arenas for up to 1 hour in the absence of any objects on day 1.
One group of 12 rats received vehicle and another set of animals received test compounds, before familiar (T1) and choice (T2) trials. During the familiarization phase, (T1), the rats were placed individually in the arena for 3 minutes, in which two identical objects (a1 and a2) were positioned 10 cm from the wall. 24 hours after T1, trial for long-term memory test was performed. The same rats were placed in the same arena as they were placed in T1 trial. During the choice phase (T2) rats were allowed to explore the arena for 3 minutes in presence of a copy of familiar object (a3) and one novel object (b). During the T1 and T2 trial, explorations of each object (defined as sniffing, licking, chewing or having moving vibrissae whilst directing the nose towards the object at a distance of less than 1 cm) were recorded using stopwatch.
T1 is the total time spent exploring the familiar objects (a1+a2).
T2 is the total time spent exploring the familiar object and novel object (a3+b).
The object recognition test was performed as described in Behav. Brain Res., 1988, 31, 47-59.

[4] = Rodent brain penetration study; type: in vivo, Male Wistar rats; conditions: male, Wistar, brain and plasma, po; rat, 3 mg/kg, p.o., brain-plasma ratio; read-out: Single dose Rat Brain Penetration (Cb/Cp) at 3 mg/kg, p.o.
Method: Rodent Brain Penetration Study
Male Wistar rats (260±40 grams) were used as experimental animals. Three animals were housed in each cage. Animals were given water and food ad libitum throughout the experiment and maintained on a 12 hours light/dark cycle.
Brain penetration was determined in discrete manner in rats. One day prior to dosing day, male Wistar rats were acclimatized and randomly grouped according to their weight. At each time point (0.50, 1 and 2 hours) n=3 animals were used.
The test compounds were suitably preformulated and administered orally at (free base equivalent) 3 mg/kg. Blood samples were removed via cardiac puncture by using isoflurane anesthesia. The animals were sacrificed to collect brain tissue. Plasma was separated and brain samples were homogenized and stored frozen at −20° C. until analysis. The concentrations of the test compounds in plasma and brain were determined using LC-MS/MS method.
The test compounds were quantified in plasma and brain homogenate by qualified LC-MS/MS method using suitable extraction technique. The test compounds were quantified in the calibration range of 1-500 ng/mL in plasma and brain homogenate. Study samples were analyzed using calibration samples in the batch and quality control samples spread across the batch. Extent of brain-plasma ratio (Cb/Cp) was calculated

| Structure (SMILES) | EC50 [1] | AUC(0-t) ([2]; intravenous (bolus), 1 mg/kg) | clearance ([2]; intravenous (bolus), 1 mg/kg) | half-life ([2]; intravenous (bolus), 1 mg/kg) | AUC(0-t) ([2]; oral (gavage), 3 mg/kg) | Cmax ([2]; oral (gavage), 3 mg/kg) | half-life ([2]; oral (gavage), 3 mg/kg) | F [2] | Inference ([3]; 10 mg/kg) | Exploration time mean ± S.E.M, Familiar object ([3]; 10 mg/kg) | Exploration time mean ± S.E.M, Novel object ([3]; 10 mg/kg) | Kp [4] | Inference ([3]; 3 mg/kg) | Exploration time mean ± S.E.M, Familiar object ([3]; 3 mg/kg) | Exploration time mean ± S.E.M, Novel object ([3]; 3 mg/kg) |
| --- | --- | --- | --- | --- | --- | --- | --- | --- | --- | --- | --- | --- | --- | --- | --- |
| Cn1ccc2c(Cc3ccc(Cl)nc3)cc(C(=O)N[C@H]3CCCC[C@@H]3O)nc21 [Example 18, N-[(1S,2S)-2-Hydroxycyclohexyl]-4-(2-chloropyridin-5-ylmethyl)-1-methyl-1H-pyrrolo[2,3-b]pyridine-6-carboxamide] | 38 nM | 853 ± 109 ng·h/mL | 20 ± 3 mL/min/kg | 1.3 ± 0.2 h | 2710 ± 769 ng·h/mL | 887 ± 74 ng/mL | 3.6 ± 0.1 h | 106 ± 30% | Active | 8.00 ± 2.88 s | 14.38 ± 1.62 s | 0.27 ± 0.06 |  |  |  |
| CN1CCc2c(Cc3ccnc(F)c3)cc(C(=O)N[C@H]3CCCC[C@@H]3O)nc21 [Example 73, N-[(1S,2S)-2-Hydroxycyclohexyl]-4-(2-fluoropyridin-4-ylmethyl)-1-methyl-2,3-dihydro-1H-pyrrolo[2,3-b]pyridine-6-carboxamide] | 786 nM | 742 ± 40 ng·h/mL | 22 ± 1 mL/min/kg | 1.1 ± 0.3 h | 1740 ± 296 ng·h/mL | 1100 ± 85 ng/mL | 1.2 ± 0.1 h | 78 ± 13% |  |  |  |  |  |  |  |
| CN1CCOc2c(Cc3ccc(F)cc3)cc(C(=O)N[C@H]3CCCC[C@@H]3O)nc21 [Example 120, N-[(1S,2S)-2-Hydroxycyclohexyl]-8-(4-fluorobenzyl)-4-methyl-2H-pyrido[3,2-b][1,4]oxazine-6-carboxamide] | 407 nM | 593 ± 79 ng·h/mL | 28 ± 4 mL/min/kg | 1.2 ± 0.3 h | 234 ± 76 ng·h/mL | 69 ± 12 ng/mL | 3.5 ± 3.3 h | 13 ± 4% | Active | 10.48 ± 1.02 s | 15.43 ± 1.23 s | 1.37 ± 0.1 |  |  |  |
| CN1CCOc2c(Cc3ccc(F)cc3)cc(C(=O)N[C@@H]3CCOC[C@H]3O)nc21 (single isomer, unassigned; isomer-ii) [Example 124, trans-N-(3-Hydroxytetrahydropyran-4-yl)-8-(4-fluorobenzyl)-4-methyl-2H-pyrido[3,2-b][1,4]oxazine-6-carboxamide (Isomer-II)] |  | 787 ± 130 ng·h/mL | 21 ± 3 mL/min/kg | 1.1 ± 0.1 h | 526 ± 126 ng·h/mL | 306 ± 66 ng/mL | 0.5 h | 22 ± 5% |  |  |  | 0.52 ± 0.05 |  |  |  |
| O=C(N[C@H]1CCCC[C@@H]1O)c1cc(Cc2ccc(F)cc2)c2c(n1)OCCO2 [Example 103, N-[(1S,2S)-2-Hydroxycyclohexyl]-8-(4-fluorobenzyl)-2,3-dihydro-[1,4]dioxino[2,3-b]pyridine-6-carboxamide] | 131 nM | 791 ± 11 ng·h/mL | 21 mL/min/kg | 0.7 ± 0.1 h | 1090 ± 102 ng·h/mL | 825 ± 41 ng/mL | 0.5 ± 0.2 h | 46 ± 4% |  |  |  | 0.63 ± 0.05 | Active | 12.20 ± 1.59 s | 19.17 ± 3.01 s |
| Cl.O=C(N[C@H]1CCCC[C@@H]1O)c1cc(Cc2ccc(F)cc2)c2c(n1)CNCC2 [Example 87, N-[(1S,2S)-2-Hydroxycyclohexyl]-4-(4-fluorobenzyl)-5,6,7,8-tetrahydro[1,7]naphthyridine-2-carboxamide Hydrochloride] | 241 nM | 224 ± 66 ng·h/mL | 79 ± 27 mL/min/kg | 1.5 ± 0.1 h | 219 ± 70 ng·h/mL | 97 ± 39 ng/mL | 0.7 ± 0.3 h | 32 ± 10% |  |  |  | 0.15 ± 0.01 |  |  |  |
| Cn1ccc2c(Cc3ccc(F)cc3)cc(C(=O)N[C@@H]3COCC[C@@H]3O)nc21 (single isomer, unassigned; isomer-i) [Example 65, cis-N-(4-Hydroxytetrahydropyran-3-yl)-4-(4-fluorobenzyl)-1-methyl-1H-pyrrolo[2,3-b]pyridine-6-carboxamide (Isomer-I)] |  |  |  |  |  |  |  |  |  |  |  | 0.32 |  |  |  |
| Cn1ccc2c(Cc3ccnc(F)c3)cc(C(=O)N[C@H]3CCOC[C@H]3O)nc21 (single isomer, unassigned; isomer-i) [Example 46, cis-N-(3-Hydroxytetrahydropyran-4-yl)-4-(2-fluoropyridin-4-ylmethyl)-1-methyl-1H-pyrrolo[2,3-b]pyridine-6-carboxamide (Isomer-I)] | 2960 nM |  |  |  |  |  |  |  |  |  |  |  |  |  |  |
| COc1ccc(Cc2cc(C(=O)N[C@H]3CCCC[C@@H]3O)nc3c2ccn3C)cn1 [Example 2, N-[(1S,2S)-2-Hydroxycyclohexyl]-4-(2-methoxypyridin-5-ylmethyl)-1-methyl-1H-pyrrolo[2,3-b]pyridine-6-carboxamide] | 1080 nM |  |  |  |  |  |  |  |  |  |  |  |  |  |  |
| Cn1ccc2c(Cc3cc(F)ncc3F)cc(C(=O)N[C@H]3CCCC[C@@H]3O)nc21 [Example 11, N-[(1S,2S)-2-Hydroxycyclohexyl]-4-(2,5-difluoropyridin-4-ylmethyl)-1-methyl-1H-pyrrolo[2,3-b]pyridine-6-carboxamide] | 1720 nM |  |  |  |  |  |  |  |  |  |  |  |  |  |  |
| Cn1ccc2c(Cc3cccc(F)c3F)cc(C(=O)N[C@@H]3CCOC[C@H]3O)nc21 (single isomer, unassigned; isomer-i) [Example 43, trans-N-(3-Hydroxytetrahydropyran-4-yl)-4-(2,3-difluorobenzyl)-1-methyl-1H-pyrrolo[2,3-b]pyridine-6-carboxamide (Isomer-I)] | 2530 nM |  |  |  |  |  |  |  |  |  |  |  |  |  |  |

Reference: patent US11040026B2, “Muscarinic M1 receptor positive allosteric modulators” (SUVEN LIFE SCIENCES LIMITED, priority 2016, dated 2021)
